Reference: US9815846B2 (Merck Sharp & Dohme Corp., priority 2014, dated 2017)

The compounds below were run against human TrkA receptor (Homo sapiens (Human), UniProt P04629) (assay: DiscoverX PathHunter TrkA functional assay (NGF-stimulated U2OS cells)). Conditions: U2OS cells expressing human TrkA-PK, Shc1-EA and p75NTR; compound 1 h, then NGF at ~80% of maximal response for 3 h; luminescence.
Assay type: cell-based

Chain of human TrkA receptor (P04629 33-796): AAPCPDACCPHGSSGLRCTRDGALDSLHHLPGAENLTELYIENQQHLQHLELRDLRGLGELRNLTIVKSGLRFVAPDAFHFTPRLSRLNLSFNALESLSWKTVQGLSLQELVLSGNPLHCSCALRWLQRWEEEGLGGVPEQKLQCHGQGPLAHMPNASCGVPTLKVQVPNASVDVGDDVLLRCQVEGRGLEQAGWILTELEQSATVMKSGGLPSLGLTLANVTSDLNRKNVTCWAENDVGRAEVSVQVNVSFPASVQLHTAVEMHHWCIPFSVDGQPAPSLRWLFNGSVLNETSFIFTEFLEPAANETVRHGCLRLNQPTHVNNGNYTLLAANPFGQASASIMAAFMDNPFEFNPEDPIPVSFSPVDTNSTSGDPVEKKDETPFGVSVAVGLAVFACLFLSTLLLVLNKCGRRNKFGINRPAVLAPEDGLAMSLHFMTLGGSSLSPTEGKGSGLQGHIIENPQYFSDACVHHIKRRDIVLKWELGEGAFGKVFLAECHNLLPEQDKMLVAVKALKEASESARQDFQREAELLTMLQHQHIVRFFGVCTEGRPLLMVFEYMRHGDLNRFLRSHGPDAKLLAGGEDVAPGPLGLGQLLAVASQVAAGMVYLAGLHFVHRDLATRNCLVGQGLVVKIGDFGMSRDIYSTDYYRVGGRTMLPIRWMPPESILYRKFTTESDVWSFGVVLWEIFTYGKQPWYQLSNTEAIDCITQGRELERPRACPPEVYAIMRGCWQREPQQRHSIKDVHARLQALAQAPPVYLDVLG

Row | Structure (SMILES) | IC50 [nM]
1 | Cn1ccc(-c2cc(C(=O)Nc3nc(CC(N)=O)ccc3-c3ccccc3)c(F)cc2C(F)(F)F)n1 [Example 205, N-(6-(2-Amino-2-oxoethyl)-3-phenylpyridin-2-yl)-2-fluoro-5-(1-methyl-1H-pyrazol-3-yl)-4-(trifluoromethyl)benzamide] | 8.4
2 | Cc1cc(C)n(-c2cc(C(=O)Nc3cnc(C)nc3-c3ccccc3)ccc2F)n1 [Example 13, 3-(3,5-dimethyl-1H-pyrazol-1-yl)-4-fluoro-N-(2-methyl-4-phenylpyrimidin-5-yl)benzamide] | 910
3 | NC(=O)c1cnc(-c2ccccc2)c(NC(=O)c2cc(-c3cc[nH]n3)c(C(F)(F)F)cc2F)c1 [Example 93, 5-(2-fluoro-5-(1H-pyrazol-3-yl)-4-(trifluoromethyl)benzamido)-6-phenylnicotinamide] | 5.7
4 | NC(=O)N1CCN(c2cnc(-c3ccccc3)c(NC(=O)c3cc(-c4ncccn4)c(C(F)(F)F)cc3F)c2)CC1 [Example 177, 4-(5-(2-fluoro-5-(pyrimidin-2-yl)-4-(trifluoromethyl)benzamido)-6-phenylpyridin-3-yl)piperazine-1-carboxamide] | 18
5 | Cn1ccc(-c2cc(C(=O)Nc3ccc(CNC(=O)CS(C)(=O)=O)nc3-c3ccccc3)c(F)cc2C(F)(F)F)n1 [Example 59, 2-fluoro-5-(1-methyl-1H-pyrazol-3-yl)-N-(6-((2-(methylsulfonyl)acetamido)methyl)-2-phenylpyridin-3-yl)-4-(trifluoromethyl)benzamide] | 0.23
6 | Cc1cnn(-c2ccncc2NC(=O)c2ccc(C(F)(F)F)c(-c3ccn(C)n3)c2)c1 [Example 19, 3-(1-methyl-1H-pyrazol-3-yl)-N-[4-(4-methyl-1H-pyrazol-1-yl)pyridin-3-yl]-4-(trifluoromethyl)benzamide] | 25
7 | CN1CCOC(C(=O)NCc2ccc(NC(=O)c3cc(-c4ccn(C)n4)c(C(F)(F)F)cc3F)c(-c3ccccc3)n2)C1 (single isomer, unassigned) [Example 63, (S or R)-N-((5-(2-fluoro-5-(1-methyl-1H-pyrazol-3-yl)-4-(trifluoromethyl)benzamido)-6-phenylpyridin-2-yl)methyl)-4-methylmorpholine-2-carboxamide] | 1.8

Results, then the compound that gave them:

Row | IC50 [nM] | Structure (SMILES)
8 | 2 | Cn1ccc(-c2cc(C(=O)Nc3cnc(CC(=O)O)nc3-c3ccccc3)c(F)cc2C(F)(F)F)n1 [Example 106, 2-(5-(2-fluoro-5-(1-methyl-1H-pyrazol-3-yl)-4-(trifluoromethyl)benzamido)-4-phenylpyrimidin-2-yl)acetic acid]
9 | 2.6 | Cn1ccc(-c2cc(C(=O)Nc3cnc(N4CCNC4=O)nc3-c3ccccc3)c(F)cc2C(F)(F)F)n1 [Example 211, 2-fluoro-5-(1-methyl-1H-pyrazol-3-yl)-N-(2-(2-oxoimidazolidin-1-yl)-4-phenylpyrimidin-5-yl)-4-(trifluoromethyl)benzamide]
10 | 0.44 | COCC(=O)NCc1ncc(NC(=O)c2cc(-c3ccn(C)n3)c(C(F)(F)F)cc2F)c(-c2ccccc2)n1 [Example 64, 2-fluoro-N-(2-((2-methoxyacetamido)methyl)-4-phenylpyrimidin-5-yl)-5-(1-methyl-1H-pyrazol-3-yl)-4-(trifluoromethyl)benzamide]
11 | 1.2 | CN(C)C(=O)Cc1ncc(NC(=O)c2cc(-c3ccn(C)n3)c(C(F)(F)F)cc2F)c(-c2ccccc2)n1 [Example 100, N-(2-(2-(Dimethylamino)-2-oxoethyl)-4-phenylpyrimidin-5-yl)-2-fluoro-5-(1-methyl-1H-pyrazol-3-yl)-4-(trifluoromethyl)benzamide]
12 | 4.1 | Cn1ccc(-c2cc(C(=O)Nc3cnc(CN4C[C@@H](O)[C@@H](O)C4)nc3-c3ccccc3)c(F)cc2C(F)(F)F)n1 [Example 184, N-(2-(((3S,4R)-3,4-dihydroxypyrrolidin-1-yl)methyl)-4-phenylpyrimidin-5-yl)-2-fluoro-5-(1-methyl-1H-pyrazol-3-yl)-4-(trifluoromethyl)benzamide]
